Laboratory results reported in US8933070B2, “Methods of targeting PTEN mutant diseases and compositions therefor” (University Health Network, priority 2010, dated 2015).
Several values for one entry are separate records, joined by “and”; a condition that tells them apart may be missing. Equal values may be shown once.

How the values were obtained:
[1] = tested on: HCT116 p53 wild-type cells
Experimental: (§1) Breast cancer cells were seeded at various concentrations, ranging from 1×10^5 to 2.5×10^5 per well according to cell growth rate, into 6-well plates 24 hours before siRNA and/or compound treatment. Each 10 mM stock solution in 100% DMSO of the compounds was diluted with Opti-MEM I Reduced-Serum Medium (Invitrogen, Canada) and added to the cells to the stated final concentrations. Control cells received 0.001% DMSO alone. Where indicated, 40 nM PTEN siRNAs (siPTEN) (QIAGEN, Canada; sense sequence: 5′-[…]-3′) or 40 nM control siRNA (siCTRL) (QIAGEN, Canada) were transfected into cells using Lipofectamine 2000 according to the manufacturer's protocol (Invitrogen, Canada). Prior to analysis, cells were trypsinized, washed in 1× phosphate-buffered saline (PBS) and centrifuged. […] All samples were read in a FACSCalibur flow cytometer (Becton, Dickinson and Company), and data analyzed using FloJo software (Tree Star, Inc.).
(§2) To explore if PTEN status may be a contributing factor in determining if PLK4 inhibitor treatment induces a cell death response in cancer cells, a test of whether reducing the levels of endogenous PTEN would sensitize HCT116 cells (either p53 wild-type or negative) to PLK4 compound-induced death (FIG. 7) was performed. […] After two days of inhibitor treatment, the percentage of sub-G1 cells was measured by cell cycle analysis.

[2] = tested on: HCT116 p53 negative cells
Experimental: as §1, §2

[3] = tested on: SKBr-3 breast cancer cell line; assay: Cell growth inhibition, SRB assay, extended panel; assay type: cell-based; conditions: Homo sapiens, SK-BR-3, read-out: GI50 Range SKBr-3
Experimental: (§3) Breast cancer cells (MCF-7, MDA-MB-468 and HCC1954), colon cancer cells (SW620) and lung cancer cells (A549), together with human mammary epithelial primary cells (HMEC) were seeded (1000 to 4000 per 80 μl per well depending on the cell growth rate) into 96-well plates 24 hours before compound overlay. Compounds were prepared as 10 mM stock solutions in 100% DMSO which were diluted with DMEM (Dulbecco's Modified Eagle's Medium) cell growth Medium (Invitrogen, Canada) containing 10% FBS (Fetal Bovine Serum) to concentrations ranging from 50 nM to 250 μM. Aliquots (20 μl) from each concentration were overlaid to 80 μl of the pre-seeded cells in the 96-plates to make final concentrations of 10 nM to 50 μM. The cells were cultured for 5 days before the Sulforhodamine B (SRB) assay was performed to determine the compound's cell growth inhibition activity.
(§4) Sulforhodamine B (Sigma, Canada) is a water-soluble dye that binds to the basic amino acids of cellular proteins. Thus, colorimetric measurement of the bound dye provides an estimate of the total protein mass that is related to the cell number. The cells are fixed in situ by gently aspirating off the culture media and adding 50 μl ice cold 10% Trichloroacetic Acid (TCA) per well and incubated at 4° C. for 30-60 min. The plates are washed with water five times and allowed to air dry for 5 min. Addition of 50 μl 0.4% (w/v) SRB solution in 1% (v/v) acetic acid to each well and incubatation for […] at RT completes the staining reaction. Following staining, plates are washed four times with 1% acetic acid to remove unbound dye and then allowed to air dry for 5 min. The stain is solubilized with 100 μl of 10 mM Tris pH 10.5 per well. Absorbance is read at 570 nm.
(§5) The percentage (%) of relative growth inhibition was calculated by comparing to DMSO-treated only cells (100%). GI50's were determined for compounds with cytotoxic activity. The GI50 was calculated using GraphPad PRISM software (GraphPad Software, Inc., USA).
(§6) The SRB assay described above was used to assay test compounds against the extended panel (Table 6).

[4] = tested on: PC-3 prostate cancer cell line; assay: Cell growth inhibition, SRB assay, extended panel; assay type: cell-based; conditions: read-out: GI50 Range PC-3
Experimental: as §3, §4, §5, §6

[5] = tested on: HCT-15 colon cancer cell line; assay: Cell growth inhibition, SRB assay, extended panel; assay type: cell-based; conditions: Homo sapiens, HCT-15, read-out: GI50 Range HCT-15
Experimental: as §3, §4, §5, §6

[6] = tested on: T-47D breast cancer cell line; assay: Cell growth inhibition, SRB assay, extended panel; assay type: cell-based; conditions: Homo sapiens, T47D, read-out: GI50 Range T-47D
Experimental: as §3, §4, §5, §6

[7] = tested on: Hs683 brain cancer cell line; assay: Cell growth inhibition, SRB assay, extended panel; assay type: cell-based; conditions: Homo sapiens, Hs 683, read-out: GI50 Range Hs683
Experimental: as §3, §4, §5, §6

[8] = tested on: 184A1 immortalized breast cell line; assay: Cell growth inhibition, SRB assay, extended panel; assay type: cell-based; conditions: 184A1, read-out: GI50 Range 184A1
Experimental: as §3, §4, §5, §6

[9] = tested on: Colo 205 colon cancer cell line; assay: Cell growth inhibition, SRB assay, extended panel; assay type: cell-based; conditions: Homo sapiens, COLO 205, read-out: GI50 Range Colo 205
Experimental: as §3, §4, §5, §6

[10] = tested on: SW626 ovarian cancer cell line; assay: Cell growth inhibition, SRB assay, extended panel; assay type: cell-based; conditions: Homo sapiens, SW626, read-out: GI50 Range SW626
Experimental: as §3, §4, §5, §6

[11] = tested on: OVCAR-3 ovarian cancer cell line; assay: Cell growth inhibition, SRB assay, extended panel; assay type: cell-based; conditions: Homo sapiens, OVCAR-3, read-out: GI50 Range OVCAR-3
Experimental: as §3, §4, §5, §6

[12] = tested on: SK-N-SH brain cancer cell line; assay: Cell growth inhibition, SRB assay, extended panel; assay type: cell-based; conditions: Homo sapiens, read-out: GI50 Range SK-N-SH
Experimental: as §3, §4, §5, §6

[13] = tested on: H358 lung cancer cell line; assay: Cell growth inhibition, SRB assay, extended panel; assay type: cell-based; conditions: Homo sapiens, NCI-H358, read-out: GI50 Range H358
Experimental: as §3, §4, §5, §6

[14] = tested on: Hs578T breast cancer cell line; assay: Cell growth inhibition, SRB assay, extended panel; assay type: cell-based; conditions: Homo sapiens, Hs-578T, read-out: GI50 Range Hs578T
Experimental: as §3, §4, §5, §6

[15] = tested on: A172 brain cancer cell line; assay: Cell growth inhibition, SRB assay, extended panel; assay type: cell-based; conditions: Homo sapiens, A 172, read-out: GI50 Range A172
Experimental: as §3, §4, §5, §6

Structure (SMILES)	percentage of sub-G1 cells [1]	percentage of sub-G1 cells [2]	GI50 [3] [µM]	GI50 [4] [µM]	GI50 [5] [µM]	GI50 [6] [µM]	GI50 [7] [µM]	GI50 [8] [µM]	GI50 [9] [µM]	GI50 [10] [µM]	GI50 [11] [µM]	GI50 [12] [µM]	GI50 [13] [µM]	GI50 [14] [µM]	GI50 [15] [µM]
COc1ccc2c(c1)[C@@]1(C[C@@H]1c1ccc3c(-c4ccc(N5CCN(C)CC5)nc4)n[nH]c3c1)C(=O)N2 (racemic) [Compound 2]	7.1% and 15.9%	5.4% and 10.3%													
COc1ccc2c(c1)/C(=C\c1ccc3c(/C=C/c4ccc(N5CCN(C)CC5)nc4)n[nH]c3c1)C(=O)N2 [Compound 3]			< 5	< 5	< 5	< 5	< 5	< 5	< 5	< 5	< 5	< 5	< 5	< 5	< 5
